The values that follow come from paper PMC6514012, “Targeting the neuronal calcium sensor DREAM with small-molecules for Huntington’s disease treatment” (Scientific Reports, 2019).

Data set [1] has as its target T1, GST-DREAM (Homo sapiens, UniProt Q9Y2W7, Y130A).
T1 construct: gene KCNIP3
T1 sequence (Q9Y2W7 1-256 Y130A): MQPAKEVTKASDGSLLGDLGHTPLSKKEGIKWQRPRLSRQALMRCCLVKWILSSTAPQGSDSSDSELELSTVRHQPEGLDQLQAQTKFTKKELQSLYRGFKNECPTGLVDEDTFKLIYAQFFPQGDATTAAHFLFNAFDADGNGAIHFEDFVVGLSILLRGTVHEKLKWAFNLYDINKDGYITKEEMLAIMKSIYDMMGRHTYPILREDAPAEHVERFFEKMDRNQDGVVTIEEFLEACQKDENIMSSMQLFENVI
In words: SPR, immobilized protein. The format is binding. Particulars: CM5 chip; compared with wild type.

Data set [2] addresses T2, His-DREAM (71–256); rDREAM (Homo sapiens, UniProt Q9Y2W7).
T2 construct: gene KCNIP3; residues 71-256, His-tagged, recombinant, immobilized on CM4 sensor chip; dimer and monomer in Ca2+
T2 sequence (Q9Y2W7 71-256): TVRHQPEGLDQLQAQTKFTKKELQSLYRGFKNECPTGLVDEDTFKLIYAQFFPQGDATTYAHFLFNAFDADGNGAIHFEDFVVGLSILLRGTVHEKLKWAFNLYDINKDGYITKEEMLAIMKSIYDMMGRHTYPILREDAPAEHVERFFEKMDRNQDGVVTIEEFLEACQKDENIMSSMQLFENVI
Nature of the data set: SPR, immobilized protein. To be noted: CM4 chip; binding depends on Ca2+ and Mg2+.

Data set [3] addresses T3, GST-DREAM (Homo sapiens, UniProt Q9Y2W7, Y118A).
T3 construct: gene KCNIP3
T3 sequence (Q9Y2W7 1-256 Y118A): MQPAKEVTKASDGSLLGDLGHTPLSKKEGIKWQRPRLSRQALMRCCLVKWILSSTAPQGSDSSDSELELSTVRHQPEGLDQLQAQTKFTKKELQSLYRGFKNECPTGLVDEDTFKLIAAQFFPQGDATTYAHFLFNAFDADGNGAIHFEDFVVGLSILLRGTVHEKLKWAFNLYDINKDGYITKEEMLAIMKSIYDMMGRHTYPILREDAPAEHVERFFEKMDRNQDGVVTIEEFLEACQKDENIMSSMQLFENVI
In words: SPR, immobilized protein. The format is binding. To be noted: CM5 chip; compared with wild type.

Data set [4] concerns the molecule itself. Nature of the data set: native gel or EMSA; 10% blue native (nondenaturing, nonreducing) polyacrylamide gel; His-DREAM 71-256 (50 ng, 100 nM) with 5 mM CaCl2, incubated 10 min at RT with 10, 30, 100 and 300 nM IQM-PC330; immunodetection with anti-DREAM antibody; dimer and monomer bands.

For `CCCCc1ccc(-c2ccc(C(=O)O)c(NC(=O)Cc3ccc(Cl)c(Cl)c3)c2)cc1` [compound 19, 2-[2-(3,4-Dichlorophenyl)acetylamino]-4-(4′-n-butylphenyl)benzoic acid], the “SPR, immobilized protein” value at GST-DREAM [1] and on GST-DREAM [3] was “Tyr118Ala or Tyr130Ala showed a substantial decrease in the binding of the two ligands” each time. The KD in data set [2] was 2.8 ± 0.3 · 10^−5 M.

Take `CCCCc1ccc(-c2ccc(NC(=O)Cc3ccc(Cl)c(Cl)c3)c(C(=O)O)c2)cc1` [compound 36, 2-[2-(3,4-Dichlorophenyl)acetylamino]-5-(4’-n-butylphenyl)benzoic acid]: the “SPR, immobilized protein” value at GST-DREAM [1] and at GST-DREAM [3] was “Tyr118Ala or Tyr130Ala showed a substantial decrease in the binding of the two ligands” each time. The KD in data set [2] is listed as 3.9 ± 0.4 · 10^−5 M.

B1: Recombinant His-tagged soluble DREAM protein (aa 71–256) (domain or fragment, UniProt Q9Y2W7 71-256, looked up)
chain: TVRHQPEGLDQLQAQTKFTKKELQSLYRGFKNECPTGLVDEDTFKLIYAQFFPQGDATTYAHFLFNAFDADGNGAIHFEDFVVGLSILLRGTVHEKLKWAFNLYDINKDGYITKEEMLAIMKSIYDMMGRHTYPILREDAPAEHVERFFEKMDRNQDGVVTIEEFLEACQKDENIMSSMQLFENVI
notes: DREAM (downstream regulatory element antagonist modulator; KChIP3, calsenilin), residues 71-256; Seen as dimer and monomer on blue native gels with 5 mM CaCl2; also called rDREAM; recombinant DREAM (amino acids 71–256); source: recombinant protein
Consider B1, for which the “stoichiometry N” value in data set [4] is 2.
